Measured values from patent US6881418B2, “Liquid deodorant killing microorganism and method of microorganism-killing deodorization” (K.I Chemical Industry Co., Ltd., priority 2001, dated 2005).

Key:
[1] = Test of sustainability of deodorant effect against active sludge (gas detector tubes); conditions: gas phase over 40% sludge suspension, ND = equal to or lower than detection limit
Method: Active sludge (dehydrated cake, water content 70%) obtained from a sewage treatment plant was used for tests on the deodorant effect. The obtained active sludge was suspended with distilled water to form a 40% suspension. Example 9, Comparative Example 2, or powdered Compound A2 was then added to the suspension in a prescribed amount (indicated based on active ingredient) and stirred. 200 g of each suspension containing Example 9, Comparative Example 2, or powdered Compound A2 was transferred to a 1-liter Erlenmeyer flask, and the flask was sealed with a rubber stopper provided with 2 glass pipes each having a rubber tube and a pinchcock. […] The measurement of each gas component was conducted by inserting a gas detector tube into one of the rubber tubes with both pinchcocks open. Used herein were a gas detector 3L (GASTEC CORPORATION) for ammonia, a gas detector 3L (GASTEC CORPORATION) for hydrogen sulfide, and a gas detector 71 (GASTEC CORPORATION) for methyl mercaptan.

[2] = tested on: Escherichia genus microbes; test: Test of fast-acting microbicidal efficacy (viable cell count against contact time); type: cell-based; conditions: pH 8
Method: Escherichia genus microbes, which were subjected to cell washing, were diluted with phosphate/citrate buffer solution (pH 8) to a concentration of approximately 10^6 CFU/ml, and 1 L each of the prepared solution was poured into glass beakers. Example 1 or 8, and the powdered substance of Compound A1 were each added thereto so as to bring to a prescribed concentration (indicated based on active ingredient), respectively, and the mixtures were stirred for 90 minutes. A portion of each mixture was taken at 5, 10, 30, and 90 minutes and was diluted with sterilized water. Then, the diluted mixture was inoculated onto a nutrient plate agar medium and cultured in an incubator at 30° C. for 3 days. Then, viable cells therein were counted. The results are shown in Tables 6 and 7 in the unit of CFU/ml. Tables 6 and 7 indicate the results obtained by conducting the tests over two separate occasions under the above conditions.

[3] = 10 ppm active ingredient, 1 hour later
[4] = 10 ppm active ingredient, 2 hours later
[5] = 20 ppm active ingredient, 1 hour later
[6] = 20 ppm active ingredient, 2 hours later
[7] = 40 ppm active ingredient, 1 hour later
[8] = 40 ppm active ingredient, 2 hours later
[9] = 80 ppm active ingredient, 2 hours later

CC1(C)C(=O)N(Cl)C(=O)N1Br [Compound A2, 1-bromo-3-chloro-5,5-dimethylhydantoin]
Volume of Ammonia [1, 3]: 40 ppm
Volume of Hydrogen sulfide [1, 3]: 5.0 ppm
Volume of Methyl mercaptan [1, 3]: 10 ppm
Volume of Ammonia [1, 4]: 40 ppm
Volume of Hydrogen sulfide [1, 4]: 5.0 ppm
Volume of Methyl mercaptan [1, 4]: 10 ppm
Volume of Ammonia [1, 5]: 40 ppm
Volume of Hydrogen sulfide [1, 5]: 5.0 ppm
Volume of Methyl mercaptan [1, 5]: 10 ppm
Volume of Ammonia [1, 6]: 40 ppm
Volume of Hydrogen sulfide [1, 6]: 5.0 ppm
Volume of Methyl mercaptan [1, 6]: 10 ppm
Volume of Ammonia [1, 7]: 10 ppm
Volume of Hydrogen sulfide [1, 7]: 2.5 ppm
Volume of Methyl mercaptan [1, 7]: 0.5 ppm
Volume of Ammonia [1, 8]: 40 ppm
Volume of Hydrogen sulfide [1, 8]: 5.0 ppm
Volume of Methyl mercaptan [1, 8]: 10 ppm
Volume of Ammonia [1, 9]: 20 ppm
Volume of Hydrogen sulfide [1, 9]: 5.0 ppm
Volume of Methyl mercaptan [1, 9]: 5.0 ppm

CC1(C)C(=O)N(Br)C(=O)N1Br [Compound A1, 1,3-dibromo-5,5-dimethylhydantoin]
viable cells ([2]; 0.25 ppm active ingredient, contact time 5 min, Table 6): 3.0 × 10^6 CFU/ml
viable cells ([2]; 0.25 ppm active ingredient, contact time 5 min, Table 7): 5.6 × 10^6 CFU/ml
viable cells ([2]; 0.25 ppm active ingredient, contact time 10 min, Table 6): 3.1 × 10^6 CFU/ml
viable cells ([2]; 0.25 ppm active ingredient, contact time 10 min, Table 7): 5.1 × 10^6 CFU/ml
viable cells ([2]; 0.25 ppm active ingredient, contact time 30 min, Table 6): 4.5 × 10^5 CFU/ml
viable cells ([2]; 0.25 ppm active ingredient, contact time 30 min, Table 7): 3.7 × 10^5 CFU/ml
viable cells ([2]; 0.25 ppm active ingredient, contact time 90 min, Table 6): 3.7 × 10^5 CFU/ml
viable cells ([2]; 0.25 ppm active ingredient, contact time 90 min, Table 7): 2.7 × 10^5 CFU/ml
viable cells ([2]; 0.5 ppm active ingredient, contact time 5 min, Table 6): 3.0 × 10^6 CFU/ml
viable cells ([2]; 0.5 ppm active ingredient, contact time 5 min, Table 7): 5.0 × 10^6 CFU/ml
viable cells ([2]; 0.5 ppm active ingredient, contact time 10 min, Table 6): 7.7 × 10^5 CFU/ml
viable cells ([2]; 0.5 ppm active ingredient, contact time 10 min, Table 7): 6.7 × 10^5 CFU/ml
viable cells ([2]; 0.5 ppm active ingredient, contact time 30 min, Table 6): 8.0 × 10^4 CFU/ml
viable cells ([2]; 0.5 ppm active ingredient, contact time 30 min, Table 7): 8.0 × 10^4 CFU/ml
viable cells ([2]; 0.5 ppm active ingredient, contact time 90 min, Table 6): <10^2 CFU/ml
viable cells ([2]; 0.5 ppm active ingredient, contact time 90 min, Table 7): <10^2 CFU/ml
viable cells ([2]; 1.0 ppm active ingredient, contact time 5 min, Table 6): 2.9 × 10^6 CFU/ml
viable cells ([2]; 1.0 ppm active ingredient, contact time 5 min, Table 7): 4.8 × 10^6 CFU/ml
viable cells ([2]; 1.0 ppm active ingredient, contact time 10 min, Table 6): 2.7 × 10^5 CFU/ml
viable cells ([2]; 1.0 ppm active ingredient, contact time 10 min, Table 7): 2.9 × 10^5 CFU/ml
viable cells ([2]; 1.0 ppm active ingredient, contact time 30 min, Table 6): 4.0 × 10^3 CFU/ml
viable cells ([2]; 1.0 ppm active ingredient, contact time 30 min, Table 7): 8.8 × 10^3 CFU/ml
viable cells ([2]; 1.0 ppm active ingredient, contact time 90 min, Table 6): <10^2 CFU/ml
viable cells ([2]; 1.0 ppm active ingredient, contact time 90 min, Table 7): <10^2 CFU/ml
viable cells ([2]; 1.5 ppm active ingredient, contact time 5 min, Table 6): 3.3 × 10^6 CFU/ml
viable cells ([2]; 1.5 ppm active ingredient, contact time 5 min, Table 7): 4.3 × 10^6 CFU/ml
viable cells ([2]; 1.5 ppm active ingredient, contact time 10 min, Table 6): 5.0 × 10^4 CFU/ml
viable cells ([2]; 1.5 ppm active ingredient, contact time 10 min, Table 7): 3.0 × 10^4 CFU/ml
viable cells ([2]; 1.5 ppm active ingredient, contact time 30 min, Table 6): 2.0 × 10^2 CFU/ml
viable cells ([2]; 1.5 ppm active ingredient, contact time 30 min, Table 7): <10^2 CFU/ml
viable cells ([2]; 1.5 ppm active ingredient, contact time 90 min, Table 6): <10^2 CFU/ml
viable cells ([2]; 1.5 ppm active ingredient, contact time 90 min, Table 7): <10^2 CFU/ml
viable cells ([2]; 2.0 ppm active ingredient, contact time 5 min, Table 6): 1.0 × 10^5 CFU/ml
viable cells ([2]; 2.0 ppm active ingredient, contact time 5 min, Table 7): 3.2 × 10^5 CFU/ml
viable cells ([2]; 2.0 ppm active ingredient, contact time 10 min, Table 6): 2.0 × 10^4 CFU/ml
viable cells ([2]; 2.0 ppm active ingredient, contact time 10 min, Table 7): 1.2 × 10^4 CFU/ml
viable cells ([2]; 2.0 ppm active ingredient, contact time 30 min, Table 6): <10^2 CFU/ml
viable cells ([2]; 2.0 ppm active ingredient, contact time 30 min, Table 7): <10^2 CFU/ml
viable cells ([2]; 2.0 ppm active ingredient, contact time 90 min, Table 6): <10^2 CFU/ml
viable cells ([2]; 2.0 ppm active ingredient, contact time 90 min, Table 7): <10^2 CFU/ml
